From patent US6620828B2, “Thiazole compounds and pharmaceutical compositions for inhibiting protein kinases and methods for their use” (Agouron Pharmaceuticals, Inc., priority 1999, dated 2003) come the findings set out here.

Where a name gives a salt, the structure may show the parent alone.

The target in one assay is T1, phosphorylated VEGF-R2Δ50 (FLVK-P) (Homo sapiens, UniProt P35968, DEL940-989/E990V).
T1 construct: VEGF-R2Δ50 contains residues 806-939 and 990-1171; made in house; host or cells: baculovirus/insect cells
T1 sequence (P35968 with tags, fused parts or gaps DEL940-989/E990V limits assumed): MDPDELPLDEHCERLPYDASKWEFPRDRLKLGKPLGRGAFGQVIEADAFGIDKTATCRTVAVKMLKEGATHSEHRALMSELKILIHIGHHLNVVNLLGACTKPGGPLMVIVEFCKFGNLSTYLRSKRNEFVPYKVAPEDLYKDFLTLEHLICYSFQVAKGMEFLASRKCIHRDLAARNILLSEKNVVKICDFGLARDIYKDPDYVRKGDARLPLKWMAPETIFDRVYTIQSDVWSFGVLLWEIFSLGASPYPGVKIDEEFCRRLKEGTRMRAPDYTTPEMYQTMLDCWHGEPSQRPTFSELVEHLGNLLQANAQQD
Put plainly: VEGF-R2 coupled spectrophotometric (FLVK-P) assay. The assay is classed as biochemical. Conditions: Table 1; at 50, concentration unit not printed (head nM). The source says:
VEGF-R2 Construct for Assay: This construct determines the ability of a test compound to inhibit tyrosine kinase activity. A construct (VEGF-R2Δ50) of the cytosolic domain of human vascular endothelial growth factor receptor 2 (VEGF-R2) lacking the 50 central residues of the 68 residues of the kinase insert domain was expressed in a baculovirus/insect cell system. Of the 1356 residues of full-length VEGF-R2, VEGF-R2Δ50 contains residues 806-939 and 990-1171, and also one point mutation (E990V) within the kinase insert domain relative to wild-type VEGF-R2. Autophosphorylation of the purified construct was performed by incubation of the enzyme at a concentration of 4 μM in the presence of 3 mM ATP and 40 mM MgCl2 in 100 mM Hepes, pH 7.5, containing 5% glycerol and 5 mM DTT, at 4° C. for 2 h. […] See Parast et al., Biochemistry, 37, 16788-16801 (1998).
Coupled Spectrophotometric (FLVK-P) Assay
The production of ADP from ATP that accompanies phosphoryl transfer was coupled to oxidation of NADH using phosphoenolpyruvate (PEP) and a system having pyruvate kinase (PK) and lactic dehydrogenase (LDH). The oxidation of NADH was monitored by following the decrease of absorbance at 340 nm (e340=6.22 cm^−1 mM^−1) using a Beckman DU 650 spectrophotometer. Assay conditions for phosphorylated VEGF-R2Δ50 (indicated as FLVK-P in the tables below) were the following: 1 mM PEP; 250 μM NADH; 50 units of LDH/mL; 20 units of PK/mL; 5 mM DTT; 5.1 mM poly(E4Y1); 1 mM ATP; and 25 mM MgCl2 in 200 mM Hepes, pH 7.5. Assay conditions for unphosphorylated VEGF-R2Δ50 (indicated as FLVK in the tables) were the following: 1 mM PEP; 250 μM NADH; 50 units of LDH/mL; 20 units of PK/mL; 5 mM DTT; 20 mM poly(E4Y1); 3 mM ATP; and 60 mM MgCl2 and 2 mM MnCl2 in 200 mM Hepes, pH 7.5. Assays were initiated with 5 to 40 nM of enzyme. Ki values were determined by measuring enzyme activity in the presence of varying concentrations of test compounds. The data were analyzed using Enzyme Kinetic and Kaleidagraph software.
In the case of `Nc1nc(Nc2cccnc2)sc1-c1nc(-c2cccc(NC(=O)c3cccc(Cl)c3)c2)no1` [D(52), 3-[3-(3-Chlorobenzamido)phenyl]-5-[2-(3-aminopyridyl)-4-amino-5-thiazolyl]-1,2,4-oxadiazole], the “FLVK-P % inhibition @ 50” value was found to be 27% @. The same measure, in the same setting: the value for `CC(=O)Nc1nc(N)c(-c2nc(-c3cccc(NC(=O)c4cccc(Cl)c4)c3)no2)s1` [F(4), N-{3-[5-(2-Acetylamino-4-amino-thiazol-5-yl)-[1,2,4]oxadiazol-3-yl]-phenyl}-3-chloro-benzamide] was 33% @; that for `Nc1nc(NC(=O)c2cccs2)sc1-c1nc(-c2cccc(NC(=O)c3cccc(Cl)c3)c2)no1` [F(5), Thiophene-2-carboxylic acid (4-amino-5-{3-[3-(3-chloro-benzoylamino)-phenyl]-[1,2,4]oxadiazol-5-yl}-thiazol-2-yl)-amide] was 31% @; that for `CCC(=O)Nc1nc(N)c(-c2nc(-c3cccc(NC(=O)c4cccc(Cl)c4)c3)no2)s1` [F(6), N-{3-[5-(4-Amino-2-propionylamino-thiazol-5-yl)-[1,2,4]oxadiazol-3-yl]-phenyl}-3-chloro-benzamide] was 34% @.

The assay is the same for the next values; noted with them: Table 1; spectrophotometric assay.
As to `COc1cc(Nc2nc(N)c(-c3nc(-c4cccc(NC(C)=O)c4)cs3)s2)cc(OC)c1OC` [D(1), N-{3-[4′-Amino-2′-(3,4,5-trimethoxy-phenylamino)-[2,5′]bithiazolyl-4-yl]-phenyl}acetamide], affinity was put at a Ki of 46 nM. This counts as double-digit nanomolar.

For the compound `COc1cc(Nc2nc(N)c(-c3nc(-c4cccc(NS(=O)(=O)Cc5ccccc5)c4)cs3)s2)cc(OC)c1OC` [D(2), N-{3-[4′-Amino-2′-(3,4,5-trimethoxy-phenylamino)-[2,5′]bithiazolyl-4-yl]-phenyl}-C-phenyl-methanesulfonamide], the affinity corresponds to a Ki of 98 nM. Same read-out and setting: as for `COc1cc(Nc2nc(N)c(-c3nc(-c4cccc(NC(=O)c5cc(Cl)ccn5)c4)cs3)s2)cc(OC)c1OC` [D(11), 4-Chloro-pyridine-2-carboxylic acid {3-[4′-amino-2′-(3,4,5-trimethoxy-phenylamino)-[2,5′]bithiazolyl-4-yl]-phenyl}-amide], the figure is 1.9 nM; as for `COc1cc(Nc2nc(N)c(-c3nc(-c4cccc(NC(=O)CCc5ccccc5)c4)cs3)s2)cc(OC)c1OC` [D(16), N-{3-[4′-Amino-2′-(3,4,5-trimethoxy-phenylamino)-[2,5′]bithiazolyl-4-yl]-phenyl}-3-phenyl-propionamide], 11.8 nM; as for `COc1cc(Nc2nc(N)c(-c3nc(-c4cccc(NC(=O)c5ccc(F)cc5)c4)cs3)s2)cc(OC)c1OC` [D(28), N-{3-[4′-Amino-2′-(3,4,5-trimethoxy-phenylamino)-[2,5′]bithiazolyl-4-yl]-phenyl}-4-fluoro-benzamide], 6 nM. Same read-out and setting: as for `COc1cc(Nc2nc(N)c(-c3nc(-c4cccc(NC(=O)c5ccc(C)c(C)c5)c4)cs3)s2)cc(OC)c1OC` [D(31), N-{3-[4′-Amino-2′-(3,4,5-trimethoxy-phenylamino)-[2,5′]bithiazolyl-4-yl]-phenyl}-3,4-dimethyl-benzamide], the figure is 4.8 nM; as for `COc1cc(Nc2nc(N)c(-c3nc(-c4cccc(NC(=O)c5cnc(C)s5)c4)cs3)s2)cc(OC)c1OC` [D(53), 2-Methyl-thiazole-5-carboxylic acid {3-[4′-amino-2′-(3,4,5-trimethoxy-phenylamino)-[2,5′]bithiazolyl-4-yl]-phenyl}-amide], 2.5 nM; as for `COc1cc(Nc2nc(N)c(-c3nc(-c4cccc(NC(=O)c5cccc(Cl)n5)c4)cs3)s2)cc(OC)c1OC` [D(54), 6-Chloro-pyridine-2-carboxylic acid {3-[4′-amino-2′-(3,4,5-trimethoxy-phenylamino)-[2,5′]bithiazolyl-4-yl]-phenyl}-amide], 6.3 nM.

Take `COc1cc(Nc2nc(N)c(-c3nc(-c4cccc(NC(=O)c5ccnc(Cl)c5)c4)cs3)s2)cc(OC)c1OC` [D(55), N-{3-[4′-Amino-2′-(3,4,5-trimethoxy-phenylamino)-[2,5′]bithiazolyl-4 yl]-phenyl}-2-chloro-isonicotinamide]: the inhibition constant (Ki) (in general, a measure of affinity in units of concentration, obtained from inhibition or displacement) turned out to be 6.3 nM. Same read-out and setting: the value for `COc1cc(Nc2nc(N)c(-c3nc(-c4cccc(NC(=O)c5cc(C)cc(C)c5)c4)no3)s2)cc(OC)c1OC` [D(56), N-(3-{5-[4-Amino-2-(3,4,5-trimethoxy-phenylamino)-thiazol-5-yl]-[1,2,4]oxadiazol-3-yl}-phenyl)-3,5-dimethyl-benzamide trifluoroacetate salt] was 0.81 nM; that for `COc1cc(Nc2nc(N)c(-c3nc(-c4cccc(NC(=O)c5ccccc5C)c4)no3)s2)cc(OC)c1OC` [D(57), N-(3-{5-[4-Amino-2-(3,4,5-trimethoxy-phenylamino)-thiazol-5-yl]-[1,2,4]oxadiazol-3-yl}-phenyl)-2-methyl-benzamide trifluoroacetate salt] was 18 nM. For the compound `COC(=O)Nc1nc(N)c(-c2nc(-c3cccc(NC(=O)c4ccc(Cl)s4)c3)cs2)s1` [F(3), (4′-Amino-4-{3-[(5-chloro-thiophene-2-carbonyl)-amino]-phenyl}-[2,5′]bithiazolyl-2′-yl)-carbamic acid methyl ester], the Ki worked out at 80 nM. The same measure, in the same setting: as for `Nc1nc(NC(=O)c2ccccc2)sc1-c1nc(-c2cccc(NC(=O)c3cccc(Cl)c3)c2)no1` [F(7), N-{3-[5-(4-amino-2-benzoylamino-thiazol-5-yl)-[1,2,4]oxadiazol-3-yl]-phenyl}-3-chloro-benzamide], the figure is 114 nM; as for `CNC(=O)Nc1nc(N)c(-c2nc(-c3cccc(NC(=O)c4cccc(C)c4)c3)no2)s1` [F(8), N-(3-[5-[4-Amino-2-(3-methyl-ureido)-thiazol-5-yl]-[1,2,4]oxadiazol-3-yl}-phenyl)-3-methyl-benzamide], 1.9 nM.

The assay is the same for the next values; noted with them: Table 2; at 100 μM.
As to `COc1cc(Nc2nc(N)c(C3=NC(c4ccc5ccccc5c4)CO3)s2)cc(OC)c1OC` (centres unmarked) [I(20)], the inhibition (usually the change of the read-out against control, counted positive when it falls) at 100 µM turned out to be 46%.

Still in this assay, the particulars now being: Table 2; spectrophotometric assay.
`COc1cc(Nc2nc(N)c(C3=N[C@@H](Cc4ccccc4)CO3)s2)cc(OC)c1OC` [I(1), S-5-(4-Benzyl-4,5-dihydro-oxazol-2-yl)-N^2-(3,4,5-trimethoxyl-pheny)-thiazole-2,4-diamine]: the Ki was greater than 100000 nM. The same measure, in the same setting: as for `COc1cc(Nc2nc(N)c(C3=NC(c4cccc(O)c4)CO3)s2)cc(OC)c1OC` (centres unmarked) [I(9), S-3-{2-[4-Amino-2-(3,4,5-trimethoxy-phenylamino)-thiazol-5-yl]-4,5-dihydro-oxazol-4-yl}-phenol], the figure is 83 nM; as for `COc1cc(Nc2nc(N)c(C3=NC(c4ccc(O)cc4)CO3)s2)cc(OC)c1OC` (centres unmarked) [I(11), S-4-{2-[4-Amino-2-(3,4,5-trimethoxy-phenylamino)-thiazol-5-yl]-4,5-dihydro-oxazol-4-yl}-phenol], 530 nM.

The same assay, now with this note: Table 3; at 1 μM.
The compound `CC(C)(C)OC(=O)Nc1cccc(-c2noc(-c3sc(Nc4cccc(C#N)c4)nc3N)n2)c1` [B(40)] returned an inhibition at 1 µM of 31%. As to `N#Cc1cccc(Nc2nc(N)c(-c3nc(-c4cccc(NC(=O)c5cccc(Cl)c5)c4)no3)s2)c1` [D(78)], the inhibition at 1 µM stood at 9%.

Another assay has as its system human umbilical vein endothelial cells (HUVEC). As to the kind of experiment: HUVEC proliferation assay. Format: cell-based. The note with it: Homo sapiens, HUVEC, Table 1. In short, it runs like this:
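Exponentially growing HUVEC were serum-starved 24 h (F12K + 1% FBS), pre-treated 1 h with compound (0.1% DMSO final), then stimulated with 6 ng/ml VEGF. Proliferation was read 72 h later by MTT reduction (A595). IC50 came from seven 0.5-log concentrations in triplicate; screens gave % inhibition relative to VEGF-only and starved wells.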
Turning to `CNC(=O)Nc1nc(N)c(-c2nc(-c3cccc(NC(=O)c4cccc(C)c4)c3)no2)s1` [F(8), N-(3-[5-[4-Amino-2-(3-methyl-ureido)-thiazol-5-yl]-[1,2,4]oxadiazol-3-yl}-phenyl)-3-methyl-benzamide], the half-maximal inhibitory concentration (IC50) (in general, the midpoint of a concentration-inhibition curve) was found to be 22 nM.

Still in this assay, the particulars now being: Homo sapiens, HUVEC, Table 2.
Turning to `COc1cc(Nc2nc(N)c(C3=N[C@@H](Cc4ccccc4)CO3)s2)cc(OC)c1OC` [I(1), S-5-(4-Benzyl-4,5-dihydro-oxazol-2-yl)-N^2-(3,4,5-trimethoxyl-pheny)-thiazole-2,4-diamine], the IC50 turned out to be 61000 nM.
